The source of these data is US12006509B2, “Macrotumor engineering” (Purdue Research Foundation, priority 2019, dated 2024).

Entries after “also recorded” stand apart in the source; their conditions may differ.

In data set [1] the test system is macrotumors formed by T4-2 cells. Nature of the data set: Doxorubicin uptake in macrotumors (autofluorescence, confocal Z-sections). It counts as cell-based. The conditions noted are these: 4-h treatment, 10 μg/ml [17.25 μM], macrotumors cultured 24 h. As for the experimental part:
FIG. 1. Differential centrifugation of small tumor nodules leads to the formation of simple and mixed types of macrotumors with in vivo like pathological features. The formation of tumors of up to 600 μm in size was induced by culturing either IDC T4-2 cells or S2 DCIS cells in Matrigel™ drip culture for 10 days. Upon release from Matrigel™ with dispase treatment, tumor nodules were incubated with 100 μg/ml fibronectin solution, spun down either as a single type of nodules (9,000 nodules; a-e) or as mixed types of nodules (4,500 nodules of each tumor type; f-g) and embedded in collagen I (2,000 Pa) as detailed in the methods section. a. […] Macrotumors cultured for 24 h were incubated with 17.25 μM doxorubicin for four hours and imaged with bright field and fluorescence microscopy (doxorubicin autofluorescence in the red channel). […] Fluorescence images of macrotumors formed by DiI-stained T4-2 nodules, CellMask™ Green-stained S2 nodules and mixed types of macrotumors with T4-2 and S2 nodules (either mixed before centrifugation ‘T4-2/S2 by mixing’ or sequentially centrifuged ‘T4-2/S2 by stacking’) taken with a Nikon®ECLIPSE® Ts2 inverted microscope (Nikon, Melville, NY). g. […] In D, 50 nuclei analyzed in two biological replicates for macrotumors and 100 nuclei analyzed per section of three tissue samples; *P<0.05 **P<0.01; ANOVA with Tukey's posthoc test. […]

Data set [2] has the same test system. Briefly: Doxorubicin treatment of macrotumors, tumor size (surface area). It counts as cell-based. Particulars: 10 μM; 24 h, followed by six-day resting period. As for the experimental part: (§1) FIG. 6. Effect of Doxorubicin treatment on macrotumors formed by T4-2 cells. a. Images of macrotumors treated (Dox) or untreated (Control) with 10 μM doxorubicin at day 0, for 24 hours and further cultured for six days. n=two replicates for this experiment (1, 2). b. Shown are the surface areas of macrotumors from A measured at days 0, 1, 2, 4, 5, and 7. c. Another experiment with 24 h Doxorubicin (Dox) treatment at day 0, 7 and 14 with images taken at day 0 and 21. Size bars, 5 mm
Images of whole tumors in culture and of paper scaffold were taken with a Plugable USB 2.0 Digital Microscope (Plugable Technologies, Redmond, WA). Tumor size (short and long axis) was measured with ImageJ. For pathological assessment slides were either directly visualized by microscopy or scanned (20× objective) with an Aperio/Pathology Slide Scanner (Leica Biosystems Inc., Buffalo Grove, IL).

Data set [3] has the same test system. Briefly: Weekly doxorubicin treatment of macrotumors, pathological assessment of nuclear morphology. It counts as cell-based. The conditions noted are these: 10 μM; 24 h weekly for three weeks; assessed at days 7 and 21. How it is done:
as §1
Macrotumors were fixed in 4% paraformaldehyde (Santa Cruz; Dallas, TX) prior to embedding in paraffin at the Histology Research Laboratory, Department of Comparative Pathobiology, Purdue University, according to standard protocols used for tumor sample embedding, sectioning, immunohistochemistry with polyclonal antibodies against caspase 3 (1/200; Cell Signaling Tech, Danvers, MA) and Ki67 (1/500; Millipore-Sigma, St Louis, MO) and hematoxylin & eosin (H&E) staining. Certain sections were stained with toluidine blue (SigmaAldrich, St. Louis, MO) before H&E staining.

Data set [4] in a line: Stiffness measurement of collagen I with fibronectin (compression test). It is filed as physicochemical. The conditions noted are these: fibronectin with collagen I vs collagen I only. How it is done:
FIG. 3. Impact of fibronectin on macrotumors. Small tumors (9000) preformed in Matrigel™ for 10 days were used to make macrotumors as described in the Methods section with or without incubation with 100 μg/ml fibronectin. a. Macrotumors prepared without fibronectin incubation and cultured for 24 hours (right images at 40× magnification). b. Comparison of volumes and areas of macrotumors with (+) or without (−) incubation with fibronectin after 30 minutes (0.5 h) and 24 h of culture; n=5, mean+/−SEM. c. Stiffness of collagen I (Young's modulus, Pa) prepared with Collagen I, and measured with customized eXpert 4000, ADMET by constant pressure on unconstrained sample (see reference 15 for details for this procedure). d. Staining with H&E of macrotumors prepared without incubation with fibronectin. e. representative images of macrotumors and nodules (mixed in collagen I for 10 minutes without prior centrifugation). Shown is the bar graph of the percentage of cells positive for proliferation marker Ki67 staining after 24 h of culture of macrotumors in collagen I or collagen I+fibronectin (F), or nodules (mixed in collagen I for 10 minutes without prior centrifugation); n=2; 150 nuclei analyzed per biological replicate. […]
The elastic modulus of cultured samples can be calculated from engineered stress-strains curve attained with compression tests. […]

As for `COc1cccc2c1C(=O)c1c(O)c3c(c(O)c1C2=O)C[C@@](O)(C(=O)CO)C[C@@H]3O[C@H]1C[C@H](N)[C@H](O)[C@H](C)O1` [doxorubicin], the “drug uptake / penetration in the macrotumor” value in data set [1] is listed as “penetration of doxorubicin in all areas of the macrotumor; also recorded: drug uptake occurred throughout the macrotumors”. For the same compound, in data set [2], the tumor size result is “appeared to decrease tumor size after day 4”. In addition, the “nuclear morphology (pathological assessment)” value in data set [3] is given as “increasingly affected”.

Turning to Fibronectin, in data set [4], the ECM stiffness result was “slightly raised”.
